Patent publication US9617244B2, “Antibacterial quinoline derivatives” (JANSSEN PHARMACEUTICA NV, priority 2012, dated 2017)
In brackets after ≈: the same amount, converted by molar mass.

Legend:
[1] = test system: Staphylococcus aureus (ATCC29213); experiment: In-vitro anti-bacterial activity, microtitre plate assay, IC90 determination (non-mycobacterial strains); type: cell-based; conditions: 90% inhibitory concentration for bacterial growth, resazurin fluorescence; for IC90 STA B29213: 24 hours; for IC90: Staphylococcus aureus, ATCC29213, 24 h, read-out: IC90 STA B29213
Experimental: D.2. In-Vitro Method for Testing Compounds for Anti-Bacterial Activity Against Various Non-Mycobacterial Strains
Preparation of Bacterial Suspensions for Susceptibility Testing:
The bacteria used in this study were grown overnight in flasks containing 100 ml Mueller-Hinton Broth (Becton Dickinson—cat. no. 275730) in sterile de-ionized water, with shaking, at 37° C. Stocks (0.5 ml/tube) were stored at −70° C. until use. Bacteria titrations were performed in microtiter plates to detect the TCID50, in which TCID50 represents the dilution that gives rise to bacterial growth in 50% of inoculated cultures. In general, an inoculum level of approximately 100 TCID50 was used for susceptibility testing.
Anti Bacterial Susceptibility Testing: IC90 Determination
Flat-bottom, sterile 96-well plastic microtiter plates were filled with 180 μl of sterile deionized water, supplemented with 0.25% BSA. Subsequently, stock solutions (7.8× final test concentration) of compounds were added in 45 μl volumes in column 2 Serial five-fold dilutions (45 μl in 180 μl) were made directly in the microtiter plates from column 2 to reach column 11. Untreated control samples with (column 1) and without (column 12) inoculum were included in each microtiter plate. Depending on the bacteria type, approximately 10 to 60 CFU per well of bacteria inoculum (100 TCID50), in a volume of 100 μl in 2.8× Mueller-Hinton broth medium, was added to the rows A to H, except column 12. The same volume of broth medium without inoculum was added to column 12 in row A to H. The cultures were incubated at 37° C. for 24 hours under a normal atmosphere (incubator with open air valve and continuous ventilation). At the end of incubation, one day after inoculation, the bacterial growth was quantitated fluorometrically. Therefore resazurin (0.6 mg/ml) was added in a volume of 20 μl to all wells 3 hours after inoculation, and the plates were re-incubated overnight. A change in colour from blue to pink indicated the growth of bacteria. The fluorescence was read in a computer-controlled fluorometer (Cytofluor Biosearch) at an excitation wavelength of 530 nm and an emission wavelength of 590 nm. The % growth inhibition achieved by the compounds was calculated according to standard methods. The IC90 (expressed in μg/ml) was defined as the 90% inhibitory concentration for bacterial growth.

[2] = test system: Mycobacterium smegmatis (ATCC607); experiment: In-vitro anti-bacterial activity against strain M. Smegmatis ATCC607; type: cell-based; conditions: 90% inhibitory concentration for bacterial growth, Alamar Blue fluorescence; for IC90 MSM 607: 48 hours; for IC90: Mycolicibacterium smegmatis, ATCC607, 48 h, read-out: IC90 MSM 607
Experimental: D.1. In-Vitro Method for Testing Compounds for Anti-Bacterial Activity Against Strain M. Smegmatis ATCC607
Flat-bottom, sterile 96-well plastic microtiter plates were filled with 180 μl of sterile deionized water, supplemented with 0.25% BSA. Subsequently, stock solutions (7.8× final test concentration) of compounds were added in 45 μl volumes to a series of duplicate wells in column 2 so as to allow evaluation of their effects on bacterial growth. Serial five-fold dilutions (45 μl in 180 μl) were made directly in the microtiter plates from column 2 to 11 using a customised robot system (Zymark Corp., Hopkinton, Mass.). Pipette tips were changed after every 3 dilutions to minimize pipetting errors with high hydrophobic compounds. Untreated control samples with (column 1) and without (column 12) inoculum were included in each microtiter plate. Approximately 250 CFU per well of bacteria inoculum, in a volume of 100 μl in 2.8× Mueller-Hinton broth medium, was added to the rows A to H, except column 12. The same volume of broth medium without inoculum was added to column 12 in row A to H. The cultures were incubated at 37° C. for 48 hours in a humidified 5% CO2 atmosphere (incubator with open air valve and continuous ventilation). At the end of incubation, two days after inoculation, the bacterial growth was quantitated fluorometrically. Therefore Alamar Blue (10×) was added to all wells in a volume of 20 μl and plates were incubated for another 2 hours at […]
The fluorescence was read in a computer-controlled fluorometer (Cytofluor, Biosearch) at an excitation wavelength of 530 nm and an emission wavelength of 590 nm (gain 30). The percentage growth inhibition achieved by the compounds was calculated according to standard methods and expressed as IC90 (μg/ml) which defines the 90% inhibitory concentration for bacterial growth.

| IC90 STA B29213 [1] | IC90 MSM 607 [2] | IC90 [1] | IC90 [2] | Structure (SMILES) |
| --- | --- | --- | --- | --- |
| 4.70 µg/mL (≈ 8.01 µM) | 4.70 µg/mL (≈ 8.01 µM) |  |  | COc1nc2ccc(S(C)(=O)=O)cc2cc1C(c1ccc(Cl)cc1)C1(O)CCNC(Cc2ccc(F)cc2F)C1 (stereo not shown) [Compound 306] |
| 7.27 µg/mL (≈ 13.4 µM) | 7.27 µg/mL (≈ 13.4 µM) |  |  | CSc1ccc2[nH]c(=O)c(C(c3cccc(Cl)c3)C3(O)CCNC(Cc4ccc(F)cc4F)C3)cc2c1 (stereo not shown) [Compound 329] |
| >14.75 µg/mL | >14.75 µg/mL |  |  | Cc1cc(F)ccc1C1CC(O)(C(c2cccc(Cl)c2)c2cc3cc(S(C)(=O)=O)ccc3[nH]c2=O)CCN1 (stereo not shown) [Compound 269] |
| 13.66 µg/mL (≈ 23.8 µM) | 17.19 µg/mL (≈ 30 µM) |  |  | CS(=O)(=O)c1ccc2[nH]c(=O)c(C(c3ccc(Cl)cc3)C3(O)CCNC(Cc4ccc(F)c(F)c4)C3)cc2c1 (stereo not shown) [Compound 215] |
| 4.23 µg/mL (≈ 7.88 µM) | 2.38 µg/mL (≈ 4.43 µM) |  |  | COc1nc2ccc(SC)cc2cc1C(c1cccc(Cl)c1)C1(O)CCNC(c2ccc(F)cc2C)C1 (stereo not shown) [Compound 164] |
| 4.38 µg/mL (≈ 8.61 µM) | 2.20 µg/mL (≈ 4.32 µM) |  |  | COc1nc2ccc(F)cc2cc1C(c1ccc(Cl)cc1)C1(O)CCNC(c2ccc(F)cc2C)C1 (stereo not shown) [Compound 332] |
| 1.06 µg/mL (≈ 2.08 µM) | 0.94 µg/mL (≈ 1.85 µM) |  |  | COc1nc2ccc(F)cc2cc1C(c1ccc(Cl)cc1)C1(O)CCNC(c2ccc(F)cc2C)C1 (stereo not shown) [Compound 331] |
| 5.27 µg/mL (≈ 10.5 µM) | 4.69 µg/mL (≈ 9.33 µM) |  |  | COc1nc2ccc(SC)cc2cc1C(c1ccccc1)C1(O)CCNC(c2ccc(F)cc2C)C1 (stereo not shown) [Compound 170] |
| >19.04 µg/mL | 19.04 µg/mL (≈ 32.4 µM) |  |  | COc1nc2ccc(S(C)(=O)=O)cc2cc1C(c1cccc(Cl)c1)C1(O)CCNC(Cc2ccc(F)cc2F)C1 (stereo not shown) [Compound 325] |
| 5.63 µg/mL (≈ 9.88 µM) | 2.52 µg/mL (≈ 4.42 µM) |  |  | COc1nc2ccc(Br)cc2cc1C(c1cccc(Cl)c1)C1(O)CCNC(c2ccc(F)cc2C)C1 (stereo not shown) [Compound 149] |
| 2.13 µg/mL (≈ 4.05 µM) | 1.69 µg/mL (≈ 3.22 µM) |  |  | COc1nc2ccc(Cl)cc2cc1C(c1ccc(Cl)cc1)C1(O)CCNC(Cc2ccc(F)cc2)C1 (stereo not shown) [Compound 346] |
| 3.17 µg/mL (≈ 6.31 µM) | 2.52 µg/mL (≈ 5.01 µM) |  |  | COc1nc2ccc(SC)cc2cc1C(c1ccccc1)C1(O)CCNC(c2ccc(F)cc2C)C1 (stereo not shown) [Compound 196] |
| >15.22 µg/mL | >15.22 µg/mL |  |  | CS(=O)(=O)c1ccc2[nH]c(=O)c(C(c3ccc(Cl)cc3)C3(O)CCN[C@@H](Cc4ccc(F)c(F)c4)C3)cc2c1 (stereo in doubt) [Compound 205] |
| 3.95 µg/mL (≈ 7.35 µM) | 3.14 µg/mL (≈ 5.85 µM) |  |  | COc1nc2ccc(Cl)cc2cc1C(c1ccc(SC)cc1)C1(O)CCNC(c2ccc(F)cc2C)C1 (stereo not shown) [Compound 354] |
| 14.75 µg/mL (≈ 25.1 µM) | 14.75 µg/mL (≈ 25.1 µM) |  |  | COc1nc2ccc(S(C)(=O)=O)cc2cc1C(c1ccc(Cl)cc1)C1(O)CCNC(Cc2ccc(F)c(F)c2)C1 (stereo not shown) [Compound 209] |
|  | 1.91 µg/mL (≈ 3.25 µM) | 2.4 µg/mL (≈ 4.08 µM) |  | COc1nc2ccc(Br)cc2cc1C(c1ccc(Cl)cc1)C1(O)CCNC(Cc2ccc(F)cc2F)C1 (stereo not shown) [Compound 313] |

Second part, the compound before the results:

| Structure (SMILES) | IC90 STA B29213 [1] | IC90 MSM 607 [2] | IC90 [1] | IC90 [2] |
| --- | --- | --- | --- | --- |
| CS(=O)(=O)c1ccc2[nH]c(=O)c(C(c3ccc(Cl)cc3)C3(O)CCN[C@@H](Cc4ccc(F)c(F)c4)C3)cc2c1 (stereo in doubt) [Compound 208] | 7.60 µg/mL (≈ 13.3 µM) | 9.57 µg/mL (≈ 16.7 µM) |  |  |
| Cc1cc(F)ccc1C1CC(O)(C(c2ccc(S(C)(=O)=O)cc2)c2cc3cc(Cl)ccc3[nH]c2=O)CCN1 (stereo not shown) [Compound 378] | 14.86 µg/mL (≈ 26.8 µM) | 11.80 µg/mL (≈ 21.3 µM) |  |  |
| CSc1ccc2[nH]c(=O)c(C(c3ccc(Cl)cc3)C3(O)CCNC(c4ccc(F)cc4C)C3)cc2c1 (stereo not shown) [Compound 268] | 1.76 µg/mL (≈ 3.36 µM) | 1.40 µg/mL (≈ 2.68 µM) |  |  |
| COc1nc2ccc(Cl)cc2cc1C(c1ccc(Cl)cc1)C1(O)CCN(C(C)c2ccccc2)C(c2cccnc2)C1 (stereo not shown) [Compound 22] |  |  | > 15 µg/mL | > 15 µg/mL |
| O=c1[nH]c2ccc(Cl)cc2cc1C(c1ccc(Cl)cc1)C1(O)CCNC(Cc2ccccc2)C1 (stereo not shown) [Compound 5] | 1.67 µg/mL (≈ 3.38 µM) | 1.67 µg/mL (≈ 3.38 µM) |  |  |
| COc1nc2ccc(SC(C)C)cc2cc1C(c1ccc(Cl)cc1)C1(O)CCNC(Cc2ccccc2)C1 (stereo not shown) [Compound 382] |  |  | 3.45 µg/mL (≈ 6.31 µM) | 2.18 µg/mL (≈ 3.98 µM) |
| C=CC1CC(O)(C(c2ccc(Cl)cc2)c2cc3cc(Br)ccc3[nH]c2=O)CCN1 (stereo not shown) [Compound 362] | 12.82 µg/mL (≈ 27.1 µM) | 10.18 µg/mL (≈ 21.5 µM) |  |  |
| COc1nc2ccccc2cc1C(c1ccccc1)C1(O)CCNC(c2ccccc2)C1 (stereo not shown) [Compound 414] | 18.39 µg/mL (≈ 43.3 µM) | 18.39 µg/mL (≈ 43.3 µM) |  |  |
| O=c1[nH]c2ccc(Cl)cc2cc1C(c1ccc(Cl)cc1)C1(O)CCNCC1F (stereo not shown) [Compound 457] |  |  | 11.5 µg/mL (≈ 27.3 µM) | 5.76 µg/mL (≈ 13.7 µM) |
| CSc1ccc2[nH]c(=O)c(C(c3ccc(Cl)cc3)C3(O)CCNC(Cc4ccc(F)cc4)C3)cc2c1 (stereo not shown) [Compound 334] | 8.87 µg/mL (≈ 17 µM) | 7.04 µg/mL (≈ 13.5 µM) |  |  |
| Cc1cc(F)ccc1C1CC(O)(C(c2cccc(Cl)c2)c2cc3cc(Br)ccc3[nH]c2=O)CCN1 (stereo not shown) [Compound 136] | 2.08 µg/mL (≈ 3.74 µM) | 1.47 µg/mL (≈ 2.64 µM) |  |  |
| COc1nc2ccc(Cl)cc2cc1C(c1ccc(Cl)cc1)C1(O)CCNCC1c1ccccc1 (stereo not shown) [Compound 410] | 12.25 µg/mL (≈ 24.8 µM) | 7.73 µg/mL (≈ 15.7 µM) |  |  |
| COc1nc2ccc(Br)cc2cc1C(c1ccc(Cl)cc1)C1(O)CCN(C)C(Cc2ccccc2)C1 (stereo not shown) [Compound 18] |  |  | 20 µg/mL (≈ 35.3 µM) | 10 µg/mL (≈ 17.7 µM) |
| COc1nc2ccc(Br)cc2cc1C(c1cccnc1)C1(O)CCNC(Cc2ccccc2)C1 (stereo not shown) [Compound 427] |  |  | > 16.1 µg/mL | > 16.1 µg/mL |
| CS(=O)(=O)c1ccc2[nH]c(=O)c(C(c3ccc(Cl)cc3)C3(O)CCNC(Cc4ccccc4)C3)cc2c1 (stereo not shown) [Compound 119] | >16.90 µg/mL | >16.90 µg/mL |  |  |
| O=c1[nH]c2ccc(Br)cc2cc1C(c1ccc(Cl)cc1)C1(O)CCNCC1Cc1cccc(F)c1 (stereo not shown) [Compound 336] | 3.51 µg/mL (≈ 6.31 µM) | 7.00 µg/mL (≈ 12.6 µM) |  |  |
| CSc1ccc2nc(O)c(C(c3ccccc3)C3(O)CCNC(c4ccc(F)cc4C)C3)cc2c1 (stereo not shown) [Compound 182] |  |  | 6.6 µg/mL (≈ 13.5 µM) | 6.6 µg/mL (≈ 13.5 µM) |
| Cc1cc(F)ccc1C1CC(O)(C(c2ccccc2)c2cc3cc(S(C)(=O)=O)ccc3[nH]c2=O)CCN1 (stereo not shown) [Compound 238] | >13.99 µg/mL | >13.99 µg/mL |  |  |
| O=c1[nH]c2ccc(Br)cc2cc1C(c1ccc(Cl)cc1)C1(O)CCNC(Cc2ccc(F)cc2F)C1 (stereo not shown) [Compound 314] | 3.05 µg/mL (≈ 5.31 µM) | 4.83 µg/mL (≈ 8.42 µM) |  |  |
| Cc1cc(F)ccc1C1CC(O)(C(c2cccc(Cl)c2)c2cc3cc(Br)ccc3[nH]c2=O)CCN1 (stereo not shown) [Compound 145] | 2.92 µg/mL (≈ 5.25 µM) | 2.32 µg/mL (≈ 4.17 µM) |  |  |
| Cc1cc(F)ccc1C1CC(O)(C(c2cccc(Cl)c2)c2cc3cc(Br)ccc3[nH]c2=O)CCN1 (stereo not shown) [Compound 135] | 1.84 µg/mL (≈ 3.31 µM) | 1.84 µg/mL (≈ 3.31 µM) |  |  |
| COc1nc2ccc(C(=O)O)cc2cc1C(c1ccc(Cl)cc1)C1(O)CCNC(Cc2ccccc2)C1 (stereo not shown) [Compound 118] |  |  | > 20.6 µg/mL | > 20.6 µg/mL |
